Legend:
[1] = system: subjects with Acute Migraines; test: Study 301 (BHV3000-301) Phase 3 placebo-controlled trial, rimegepant 75 mg tablet, acute treatment of migraine: efficacy and safety; type: in vivo, human
Description: Clinical Trial—BHV3000-301: Phase 3: Double-Blind, Randomized, Placebo-Controlled, Safety and Efficacy Trial of BHV-3000 (Rimegepant) for the Acute Treatment of Migraine (ClinicalTrials.gov Identifier: NCT03235479). A phase 3 clinical study was conducted with 1490 participants, as follows. The purpose of this study was to compare the efficacy of BHV-3000 (rimegepant) versus placebo in subjects with Acute Migraines • Study Type: Interventional (Clinical Trial) • Actual Enrollment: 1490 participants • Allocation: Randomized • Intervention Model: Parallel Assignment • Intervention Model Description: Double-blind to Sponsor, Investigator and Subject Randomized Controlled Trial • Masking: Triple (Participant, Care Provider, Investigator) • Masking Description: Double-blind to Sponsor, Investigator and Subject • Primary Purpose: Treatment • Official Title: BHV3000-301: Phase 3: Double-Blind, Randomized, Placebo-Controlled, Safety and Efficacy Trial of BHV-3000 (Rimegepant) for the Acute Treatment of Migraine [table] • 1. Pain freedom of rimegepant (75 mg tablet) compared with placebo in the acute treatment of migraine will be measured using the number of evaluable subjects that report no pain at 2 hours post-dose. [Time Frame: Two hours post dose] • Pain will be measured on a 4 point Likert scale (0=none, 1=mild, 2=moderate, 3=severe) • 2. Freedom from the most bothersome symptom (MBS) of rimegepant (75 mg tablet) compared with placebo will be measured using the number of evaluable subjects that report the absence of their MBS at 2 hours post-dose. [Time Frame: Two hours post dose] • The MBS (nausea, phonophobia or photophobia) will measured using a binary scale (0=absent, 1=present). • 1. […] [Time Frame: 2 hours −24 hours post-dose] • Sustained Pain Freedom as measured by a 4 point numeric rating scale (None, Mild, Moderate, Severe) • 2. The difference between rimegepant (75 mg tablet) compared to placebo by tabulating the absence of photophobia at 2 hours post-dose in the subset of subjects that reported the presence of photophobia at headache baseline. [Time Frame: 2 hours post-dose] • Photophobia • 3. To evaluate rimegepant (75 mg tablet) compared to placebo by tabulating the number of subjects that report the absence of phonophobia at 2 hours post-dose in the subset of subjects that reported the presence of phonophobia at headache baseline. [Time Frame: 2 hours post-dose] • Phonophobia • 4. To measure the difference between rimegepant (75 mg tablet) compared to placebo on Pain Relief, at 2 hours post-dose, for those that report a pain level of moderate or severe at baseline and then report a pain level of none or mild. [Time Frame: 2 hours post-dose] • Pain Relief as measured by a 4 point numeric rating scale (None, Mild, Moderate, Severe) • 5. Freedom from Nausea by tabulating the number of subjects that report the absence of nausea at 2 hours post-dose in the subset of subjects that reported the presence of nausea at headache baseline. [Time Frame: 2 hours post-dose] • Freedom from Nausea • 6. The difference between rimegepant (75 mg tablet) compared to placebo on the probability of requiring rescue medication using the number of subjects that take rescue medication within […] administration of study medication (BHV3000 or placebo). [Time Frame: up to 24 hours post-dose] • Requiring Rescue Medication • 7. […] [Time Frame: 2 hours-24 hours post-dose] • Sustained Pain Freedom • 8. […] [Time Frame: 2 hours-24 hours post-dose] • Sustained Pain Relief as measured by a 4 point numeric rating scale (None, Mild, Moderate, Severe) • 9. […] [Time Frame: 2 hours-48 hours post-dose] • Sustained Pain Relief as measured by a 4 point numeric rating scale (None, Mild, Moderate, Severe) • 10. To measure the difference between rimegepant (75 mg tablet) relative to placebo on the proportion of subjects able to function normally, at 2 hours, using the number of subjects that self-report as “normal” on the functional disability scale. […]

[2] = Pooled adverse event and LFT safety data, Studies 301, 302 and 303; type: in vivo, human; set-up: ALT or AST >10x ULN / ALT or AST >20x ULN: unit not given here; conditions: pooled Studies 301, 302 and 303, n = 1,771

Compound: N[C@@H]1c2cccnc2[C@H](OC(=O)N2CCC(n3c(=O)[nH]c4ncccc43)CC2)CC[C@H]1c1cccc(F)c1F [Rimegepant, [(5S,6S,9R)-5-amino-6-(2,3-difluorophenyl)-6,7,8,9-tetrahydro-5H-cyclohepta[b]pyridin-9-yl] 4-(2-oxo-3H-imidazo[4,5-b]pyridin-1-yl)piperidine-1-carboxylate]
- SAEs related to the study drug [1]: No SAE was determined to be related to the study drug
- Transaminase level >5 times ULN, subjects [1]: no subject
- Adverse event dizziness, incidence ([1]; 4/546): 0.7%
- Adverse event nausea, incidence ([1]; 5/546): 0.9%
- Serum ALT or AST levels greater than ULN, subjects ([1]; 11/546): 2.0%
- Proportion of patients achieving normal function at 2 hours (functional disability) versus placebo ([1]; P<0.0001): greater proportion
- Serious AEs (SAEs), subjects ([1]; n=2, both not dosed before onset): 0.4%
- Transaminase level >3 times ULN, subjects ([1]; one subject): 0.2%
- ALT or AST >3x ULN, n (%) [2]: 2 (0.1%) n (%)
- ALT or AST >10x ULN [2]: 0
- ALT or AST >20x ULN [2]: 0
- ALT or AST >ULN, n (%) [2]: 48 (2.7%) n (%)
- ALT or AST >5x ULN, n (%) ([2]; AST elevation, not drug-related per investigator): 1 (0.06%) ^2 n (%)

From patent US20220168295A1, “RIMEGEPANT FOR CGRP RELATED DISORDERS” (Biohaven Pharmaceutical Ireland DAC, priority 2018, published 2022)
